In PMC4168798 (ACS Chemical Biology, 2014):

What was measured:
Mcl-1 [1] = target: T1, Mcl-1 (Homo sapiens, UniProt Q07820); assay: direct fluorescence anisotropy binding
Bfl-1 [2] = target: T2, Bfl-1 (Homo sapiens, UniProt Q16548); assay: direct fluorescence anisotropy binding
T2 sequence (Q16548 1-151 limits assumed): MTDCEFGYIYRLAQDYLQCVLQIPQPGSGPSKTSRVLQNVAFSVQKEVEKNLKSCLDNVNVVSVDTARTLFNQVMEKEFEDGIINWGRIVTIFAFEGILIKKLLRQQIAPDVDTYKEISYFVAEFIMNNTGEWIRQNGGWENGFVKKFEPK

Bcl-w [3] = target: T3, Bcl-w (Homo sapiens, UniProt Q92843); assay: direct fluorescence anisotropy binding
T3 sequence (Q92843 1-164 limits assumed): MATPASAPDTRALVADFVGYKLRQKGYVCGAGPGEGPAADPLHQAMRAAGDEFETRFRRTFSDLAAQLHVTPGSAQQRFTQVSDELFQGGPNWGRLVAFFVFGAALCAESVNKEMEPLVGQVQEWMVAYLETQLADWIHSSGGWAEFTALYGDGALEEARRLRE

Bcl-xL [4] = target: Bcl-xL (Homo sapiens, UniProt Q07817); assay: direct fluorescence anisotropy binding
Bcl-xL (Homo sapiens, UniProt Q07817), sequence (Q07817 1-209 limits assumed): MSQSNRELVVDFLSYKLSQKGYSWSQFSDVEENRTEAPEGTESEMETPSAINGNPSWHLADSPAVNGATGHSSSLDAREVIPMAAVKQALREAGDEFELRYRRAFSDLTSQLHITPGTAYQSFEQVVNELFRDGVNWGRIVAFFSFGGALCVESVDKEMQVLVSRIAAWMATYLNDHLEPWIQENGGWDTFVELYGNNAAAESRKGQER

Bcl-2 [5] = target: Bcl-2 (Homo sapiens, UniProt P10415); assay: direct fluorescence anisotropy binding
Bcl-2 (Homo sapiens, UniProt P10415), sequence (P10415 1-217 limits assumed): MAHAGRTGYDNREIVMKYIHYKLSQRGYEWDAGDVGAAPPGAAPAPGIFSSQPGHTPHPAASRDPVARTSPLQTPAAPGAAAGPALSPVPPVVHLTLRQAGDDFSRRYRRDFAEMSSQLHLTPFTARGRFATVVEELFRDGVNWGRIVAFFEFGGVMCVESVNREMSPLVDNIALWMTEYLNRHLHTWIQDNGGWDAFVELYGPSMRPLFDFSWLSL

KSBcl-2 = target: T4, KSBcl-2 (Human herpesvirus 8 type P, UniProt F5HGJ3); assay: direct fluorescence anisotropy binding; set-up: species or system Kaposi sarcoma herpesvirus
T4 sequence (F5HGJ3 1-150): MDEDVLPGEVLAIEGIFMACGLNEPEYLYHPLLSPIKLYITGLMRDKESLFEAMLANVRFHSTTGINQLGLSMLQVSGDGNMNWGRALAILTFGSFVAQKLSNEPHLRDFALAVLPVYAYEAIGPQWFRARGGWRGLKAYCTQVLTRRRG

Mcl-1 [6] = target: T1, Mcl-1; assay: competition fluorescence anisotropy vs fluoresceinated Bim; details: biochemical competition binding experiments; four other human Bcl-2 paralogs
Bcl-xL [7] = details: NoxaA BH3 peptide from murine Noxa; cited from earlier work
Bcl-2 [8] = details: NoxaA BH3 peptide from murine Noxa; cited from earlier work
Bcl-w [9] = details: NoxaA BH3 peptide from murine Noxa; cited from earlier work
Bfl-1 [10] = details: NoxaA BH3 peptide from murine Noxa; cited from earlier work

T1 sequence (Q07820 172-327 limits assumed): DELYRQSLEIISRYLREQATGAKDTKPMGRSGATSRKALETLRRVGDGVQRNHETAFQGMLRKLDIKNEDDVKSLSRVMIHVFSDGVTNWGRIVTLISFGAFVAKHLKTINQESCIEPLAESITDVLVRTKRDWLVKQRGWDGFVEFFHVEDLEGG

CC[C@H](C)[C@H](NC(=O)[C@H](CCCNC(=N)N)NC(=O)[C@H](CCCNC(=N)N)NC(=O)[C@H](CC(C)C)NC(=O)[C@H](CCC(=O)O)NC(=O)[C@H](CCC(N)=O)NC(=O)[C@@H](NC(=O)[C@@H](NC(=O)[C@H](Cc1c[nH]c2ccccc12)NC(=O)[C@@H](NC(=O)[C@H](CCC(=O)O)NC(=O)[C@@H]1CCCN1C(=O)[C@@H](N)CCCNC(=N)N)[C@@H](C)CC)[C@@H](C)CC)[C@@H](C)O)C(=O)NCC(=O)N[C@@H](CC(=O)O)C(=O)N[C@@H](CCC(=O)O)C(=O)N[C@@H](Cc1ccccc1)C(=O)N[C@@H](CC(N)=O)C(=O)N[C@@H](C)C(=O)N[C@@H](Cc1ccc(O)cc1)C(=O)N[C@@H](Cc1ccc(O)cc1)C(=O)N[C@@H](C)C(=O)N[C@@H](CCCNC(=N)N)C(N)=O [Bim_A2eT]
Kd (Mcl-1 [1]): < 1 nM

CC[C@H](C)[C@H](NC(=O)[C@H](CCCNC(=N)N)NC(=O)[C@H](CCCNC(=N)N)NC(=O)[C@H](CC(C)C)NC(=O)[C@H](CCC(=O)O)NC(=O)[C@H](CCC(N)=O)NC(=O)[C@@H](NC(=O)[C@@H](NC(=O)[C@H](Cc1c[nH]c2ccccc12)NC(=O)[C@@H](NC(=O)[C@H](CCC(=O)O)NC(=O)[C@@H]1CCCN1C(=O)[C@@H](N)CCCNC(=N)N)[C@@H](C)CC)[C@@H](C)CC)[C@@H](C)O)C(=O)NCC(=O)N[C@@H](CC(=O)O)C(=O)N[C@@H](CCC(=O)O)C(=O)N[C@H](C(=O)N[C@@H](CC(N)=O)C(=O)N[C@@H](C)C(=O)N[C@@H](Cc1ccc(O)cc1)C(=O)N[C@@H](Cc1ccc(O)cc1)C(=O)N[C@@H](C)C(=O)N[C@@H](CCCNC(=N)N)C(N)=O)[C@@H](C)CC [Bim_A2eT_F4aI]
Kd (Mcl-1 [1]): < 1 nM
Kd (Bfl-1 [2]): 7.9 ± 2.1 nM
Kd (Bcl-w [3]): 16 ± 4.1 nM
Kd (Bcl-xL [4]): 110 ± 62 nM
Kd (Bcl-2 [5]): 150 ± 43 nM

CC[C@H](C)[C@H](NC(=O)[C@H](CCCNC(=N)N)NC(=O)[C@H](CCCNC(=N)N)NC(=O)[C@H](CC(C)C)NC(=O)[C@H](CCC(=O)O)NC(=O)[C@H](CCC(N)=O)NC(=O)[C@@H](NC(=O)[C@H](CCSC)NC(=O)[C@H](Cc1c[nH]c2ccccc12)NC(=O)[C@@H](NC(=O)[C@H](CCC(=O)O)NC(=O)[C@@H]1CCCN1C(=O)[C@@H](N)CCCNC(=N)N)[C@@H](C)CC)[C@@H](C)O)C(=O)NCC(=O)N[C@@H](CC(=O)O)C(=O)N[C@@H](CCC(=O)O)C(=O)N[C@@H](Cc1ccccc1)C(=O)N[C@@H](CC(N)=O)C(=O)N[C@@H](C)C(=O)N[C@@H](Cc1ccc(O)cc1)C(=O)N[C@@H](Cc1ccc(O)cc1)C(=O)N[C@@H](C)C(=O)N[C@@H](CCCNC(=N)N)C(N)=O [Bim_A2eT_I2dM]
Kd (Mcl-1 [1]): < 1 nM

CC[C@H](C)[C@H](NC(=O)[C@H](CCC(=O)O)NC(=O)[C@@H]1CCCN1C(=O)[C@@H](N)CCCNC(=N)N)C(=O)N[C@@H](Cc1c[nH]c2ccccc12)C(=O)N[C@H](C(=O)N[C@H](C(=O)N[C@@H](CCC(N)=O)C(=O)N[C@@H](CCC(=O)O)C(=O)N[C@@H](CC(C)C)C(=O)N[C@@H](CCCNC(=N)N)C(=O)N[C@@H](CCCNC(=N)N)C(=O)N[C@@H](CC(C)C)C(=O)NCC(=O)N[C@@H](CC(=O)O)C(=O)N[C@@H](CCC(=O)O)C(=O)N[C@@H](Cc1ccccc1)C(=O)N[C@@H](CC(N)=O)C(=O)N[C@@H](C)C(=O)N[C@@H](Cc1ccc(O)cc1)C(=O)N[C@@H](Cc1ccc(O)cc1)C(=O)N[C@@H](C)C(=O)N[C@@H](CCCNC(=N)N)C(N)=O)[C@@H](C)O)[C@@H](C)CC [Bim_A2eT_I3dL]
Kd (Mcl-1 [1]): < 1 nM

CC[C@H](C)[C@H](NC(=O)[C@H](CCC(=O)O)NC(=O)[C@H](CC(=O)O)NC(=O)CNC(=O)[C@H](CC(C)C)NC(=O)[C@H](CCCNC(=N)N)NC(=O)[C@H](CCCNC(=N)N)NC(=O)[C@H](CC(C)C)NC(=O)CNC(=O)[C@H](CCC(N)=O)NC(=O)[C@@H](NC(=O)[C@H](CCSC)NC(=O)[C@H](Cc1c[nH]c2ccccc12)NC(=O)[C@@H](NC(=O)[C@H](CCC(=O)O)NC(=O)[C@@H]1CCCN1C(=O)[C@H](CCCNC(=N)N)NC(C)=O)[C@@H](C)CC)[C@@H](C)O)C(=O)N[C@@H](CC(N)=O)C(=O)N[C@@H](C)C(=O)N[C@@H](Cc1ccc(O)cc1)C(=O)N[C@@H](Cc1ccc(O)cc1)C(=O)N[C@@H](C)C(=O)N[C@@H](CCCNC(=N)N)C(N)=O [MS1]
Kd (KSBcl-2): 2.9 ± 0.68 nM
specificity for Mcl-1 over Bcl-xL, Bcl-2, Bcl-w and Bfl-1 (Mcl-1 [6]): ≥ 40 fold

CC[C@H](C)[C@H](NC(=O)[C@H](CCC(=O)O)NC(=O)[C@H](CC(=O)O)NC(=O)CNC(=O)[C@H](CC(C)C)NC(=O)[C@H](CCCNC(=N)N)NC(=O)[C@H](CCC(N)=O)NC(=O)[C@H](CC(C)C)NC(=O)[C@H](CO)NC(=O)[C@H](CCC(N)=O)NC(=O)[C@@H](NC(=O)[C@H](CC(C)C)NC(=O)[C@H](Cc1c[nH]c2ccccc12)NC(=O)[C@@H](NC(=O)[C@H](CCC(=O)O)NC(=O)[C@@H]1CCCN1C(=O)[C@H](CCCNC(=N)N)NC(C)=O)[C@@H](C)CC)[C@@H](C)O)C(=O)N[C@@H](CC(N)=O)C(=O)N[C@@H](C)C(=O)N[C@@H](Cc1ccc(O)cc1)C(=O)N[C@@H](Cc1ccc(O)cc1)C(=O)N[C@@H](C)C(=O)N[C@@H](CCCNC(=N)N)C(N)=O [MS2]
Kd (KSBcl-2): < 1 nM

CC[C@H](C)[C@H](NC(=O)[C@H](CCC(=O)O)NC(=O)[C@H](CC(=O)O)NC(=O)CNC(=O)[C@H](CC(C)C)NC(=O)[C@H](CCCNC(=N)N)NC(=O)[C@H](CCC(N)=O)NC(=O)[C@H](CC(C)C)NC(=O)[C@H](Cc1c[nH]cn1)NC(=O)[C@H](CCC(N)=O)NC(=O)[C@@H](NC(=O)[C@H](CC(C)C)NC(=O)[C@H](Cc1c[nH]c2ccccc12)NC(=O)[C@@H](NC(=O)[C@H](CCC(=O)O)NC(=O)[C@@H]1CCCN1C(=O)[C@@H](N)CCCNC(=N)N)[C@@H](C)CC)[C@@H](C)O)C(=O)N[C@@H](CC(N)=O)C(=O)N[C@@H](C)C(=O)N[C@@H](Cc1ccc(O)cc1)C(=O)N[C@@H](Cc1ccc(O)cc1)C(=O)N[C@@H](C)C(=O)N[C@@H](CCCNC(=N)N)C(N)=O [MS3]
Kd (Mcl-1 [1]): 2 ± 1.2 nM
Kd (Bcl-2 [5]): > 3000 nM

CC[C@H](C)[C@H](NC(=O)[C@H](CCCCN)NC(=O)[C@H](CCCNC(=N)N)NC(=O)[C@H](CC(C)C)NC(=O)[C@H](CCC(N)=O)NC(=O)[C@H](C)NC(=O)[C@H](C)NC(=O)[C@H](Cc1ccccc1)NC(=O)[C@H](CCC(=O)O)NC(=O)[C@@H]1CCCN1C(=O)[C@@H]1CCCN1C(=O)[C@H](CC(C)C)NC(=O)[C@H](CCC(=O)O)NC(=O)[C@H](C)NC(C)=O)C(=O)NCC(=O)N[C@@H](CC(=O)O)C(=O)N[C@@H](CCCCN)C(=O)N[C@H](C(=O)N[C@@H](Cc1ccc(O)cc1)C(=O)N[C@@H](CS)C(N)=O)C(C)C [NoxaA]
no binding to Bcl-xL up to (Bcl-xL [7]): > 2500 nM
no binding to Bcl-2 up to (Bcl-2 [8]): > 2500 nM
no binding to Bcl-w up to (Bcl-w [9]): > 2500 nM
no binding to Bfl-1 up to (Bfl-1 [10]): > 2500 nM
